{"source": "patent US4098798A", "about": "“Adriamycins, process for their preparation and uses thereof” (Societa' Farmaceutici Italia S.p.A., priority 1974, dated 1978)", "key": {"B-subtilis": {"system": "B-subtilis", "test": "inhibition zones on agar-B-subtilis plates, paper disc technique", "assay_type": "cell-based", "details": "hydrochlorides, read-out: inhibition zone diameter; for zone of inhibition at 5 µg/disc: 5 μg; for zone of inhibition at 10 µg/disc: 10 μg; for zone of inhibition at 15 µg/disc: 15 μg; for zone of inhibition at 20 µg/disc: 20 μg"}, "[1]": {"system": "Moloney Sarcoma Virus (MSV)", "test": "MSV foci formation in infected mouse embryo fibroblast cultures (antiviral action)", "assay_type": "cell-based", "details": "72 h, treatment of 3 days, read-out: Antiviral Action ID50", "experimental": "(§1) The test compounds were evaluated on mouse embryo fibroblast cultures infected with MSV and on similar uninfected cultures. After a treatment of 3 days, the inhibiting doses (ID50) were evaluated on cell proliferation in uninfected cultures (cytotoxic action) and on MSV foci formation in infected cultures (antiviral action)."}, "[2]": {"test": "cell proliferation in uninfected mouse embryo fibroblast cultures (cytotoxic action)", "assay_type": "cell-based", "details": "mouse embryo fibroblasts, treatment of 3 days, read-out: Cytotoxic Action ID50", "experimental": "as §1"}, "MSV": {"system": "MSV", "test": "Activity on MSV Production, focus assay", "assay_type": "cell-based, Moloney Sarcoma Virus", "details": "0.05 γ/ml, 3 days; control 4.7 × 10^4", "experimental": "MSV infected cultures were treated for 3 days, and the virus yields were determined in the cell and supernatant medium by focus assay in the presence of leukemia virus."}, "HeLa cells": {"system": "HeLa cells", "test": "Cloning Efficiency of Hela cells in vitro", "assay_type": "cell-based", "details": "for IC50: Homo sapiens, HeLa, 50% inhibition of colonies", "experimental": "After treatment for 2,8 or 24 hours, HeLa cells were seeded (200 cells per plate) and the number of colonies determined 8 days later.\nThe ID50 represents the dose which gives a 50% of inhibition of colonies."}, "Ascites Sarcoma 180": {"system": "Ascites Sarcoma 180", "test": "Action on Ascites Sarcoma 180 in mice", "assay_type": "in vivo, mice (Swiss CD 1)", "details": "for Average Survival time: one day after inoculation, untreated = 100%", "experimental": "The tests were carried out on groups of 10 mice (Swiss CD 1). The compounds under examination were administered intraperitoneally in varying doses to the test animals one day after intraperitoneal inoculation with 1 × 10^6 tumor cells per animal. The average survival time is given in Table 1 as a percentage of the survival time of untreated animals, which is arbitrarily designated as 100%. Also given in Table 1 are the number of long term survivors."}}, "note": "Read-outs that look alike come from different tables or passages of the source."}
{"smiles": "COc1cccc2c1C(=O)c1c(O)c3c(c(O)c1C2=O)C[C@@](O)(C(=O)CO)C[C@@H]3O[C@@H]1C[C@H](N)[C@@H](O)[C@H](C)O1", "note": "[4'-epi-adriamycin (β-anomer), 7-0-(3'-amino-2',3',6'-trideoxy-β-L-arabinohexopyranosyl)-adriamycinone]", "values": [{"measurement": "zone of inhibition at 5 µg/disc", "setting": "B-subtilis", "value": 15, "unit": "mm"}, {"measurement": "zone of inhibition at 10 µg/disc", "setting": "B-subtilis", "value": 15.5, "unit": "mm"}, {"measurement": "zone of inhibition at 15 µg/disc", "setting": "B-subtilis", "value": 16, "unit": "mm"}, {"measurement": "zone of inhibition at 20 µg/disc", "setting": "B-subtilis", "value": 17, "unit": "mm"}]}
{"smiles": "COc1cccc2c1C(=O)c1c(O)c3c(c(O)c1C2=O)CC(O)(C(=O)CO)CC3OC1CC(N)C(O)C(C)O1", "note": "(stereo not drawn) [4'-Epi-adriamycin]", "values": [{"measurement": "IC50", "setting": "[1]", "value": "> 6", "unit": "ng/mL"}, {"measurement": "CC50 at 72 h", "setting": "[2]", "value": 0.01, "unit": "µg/mL"}, {"measurement": "virus yield (FFU/ml)", "setting": "MSV", "value": "4 × 10^2 FFU/ml"}]}
{"smiles": "COc1cccc2c1C(=O)c1c(O)c3c(c(O)c1C2=O)C[C@@](O)(C(=O)CO)C[C@@H]3O[C@H]1C[C@H](N)[C@@H](O)[C@H](C)O1", "note": "[4'-Epi-adriamycin (α-anomer), 7-0-(3'-amino-2',3',6'-trideoxy-α-L-arabinohexopyranosyl)-adriamycinone]", "values": [{"measurement": "zone of inhibition at 5 µg/disc", "setting": "B-subtilis", "value": 19, "unit": "mm"}, {"measurement": "zone of inhibition at 10 µg/disc", "setting": "B-subtilis", "value": 21, "unit": "mm"}, {"measurement": "zone of inhibition at 15 µg/disc", "setting": "B-subtilis", "value": 22, "unit": "mm"}, {"measurement": "zone of inhibition at 20 µg/disc", "setting": "B-subtilis", "value": 23, "unit": "mm"}, {"measurement": "IC50", "setting": "HeLa cells; Table 7, 2h treatment, read-out: DI50 (the source's name)", "value": 0.85, "unit": "µg/mL"}, {"measurement": "IC50", "setting": "HeLa cells; Table 7, 8h treatment, read-out: DI50 (the source's name)", "value": 0.7, "unit": "µg/mL"}, {"measurement": "IC50", "setting": "HeLa cells; Table 7, 24h treatment, read-out: DI50 (the source's name)", "value": 0.36, "unit": "µg/mL"}, {"measurement": "IC50", "setting": "HeLa cells; Table 8, 2h treatment, read-out: DI 50 (the source's name)", "value": 5, "unit": "µg/mL"}, {"measurement": "IC50", "setting": "HeLa cells; Table 8, 8h treatment, read-out: DI 50 (the source's name)", "value": 0.2, "unit": "µg/mL"}, {"measurement": "IC50", "setting": "HeLa cells; Table 8, 24h treatment, read-out: DI 50 (the source's name)", "value": 0.2, "unit": "µg/mL"}, {"measurement": "Average Number of Colonies", "setting": "HeLa cells; Table 7, 0.1 μg/ml, 8h, control 125", "value": 158}, {"measurement": "Average Number of Colonies", "setting": "HeLa cells; Table 7, 0.1 μg/ml, 24h, control 223", "value": 216}, {"measurement": "Average Number of Colonies", "setting": "HeLa cells; Table 7, 0.25 μg/ml, 8h, control 125", "value": 150}, {"measurement": "Average Number of Colonies", "setting": "HeLa cells; Table 7, 0.25 μg/ml, 24h, control 223", "value": 199}, {"measurement": "Average Number of Colonies", "setting": "HeLa cells; Table 7, 0.5 μg/ml, 8h, control 125", "value": 92}, {"measurement": "Average Number of Colonies", "setting": "HeLa cells; Table 7, 0.5 μg/ml, 24h, control 223", "value": 52}, {"measurement": "Average Number of Colonies", "setting": "HeLa cells; Table 7, 1 μg/ml, 2h, control 132", "value": 57}, {"measurement": "Average Number of Colonies", "setting": "HeLa cells; Table 7, 1 μg/ml, 8h, control 125", "value": 36}, {"measurement": "Average Number of Colonies", "setting": "HeLa cells; Table 7, 1 μg/ml, 24h, control 223", "value": 29}, {"measurement": "Average Number of Colonies", "setting": "HeLa cells; Table 8, 0.125 μg/ml, 2h, control 156", "value": 245}, {"measurement": "Average Number of Colonies", "setting": "HeLa cells; Table 8, 0.125 μg/ml, 8h, control 189", "value": 170}, {"measurement": "Average Number of Colonies", "setting": "HeLa cells; Table 8, 0.25 μg/ml, 8h, control 189", "value": 43}, {"measurement": "Average Number of Colonies", "setting": "HeLa cells; Table 8, 0.25 μg/ml, 24h, control 136", "value": 46}, {"measurement": "Average Number of Colonies", "setting": "HeLa cells; Table 8, 0.5 μg/ml, 2h, control 156", "value": 130}, {"measurement": "Average Number of Colonies", "setting": "HeLa cells; Table 8, 0.5 μg/ml, 8h, control 189", "value": 45}, {"measurement": "Average Number of Colonies", "setting": "HeLa cells; Table 8, 0.5 μg/ml, 24h, control 136", "value": 38}, {"measurement": "Average Number of Colonies", "setting": "HeLa cells; Table 8, 1 μg/ml, 8h, control 189", "value": 27}, {"measurement": "Average Number of Colonies", "setting": "HeLa cells; Table 8, 1 μg/ml, 24h, control 136", "value": 17}, {"measurement": "Long Term Survivors (after 60 days)", "setting": "Ascites Sarcoma 180; 0.5 mg/Kg i.p.", "value": "0/10"}, {"measurement": "Average Survival time", "setting": "Ascites Sarcoma 180; 0.5 mg/Kg i.p.", "value": 135, "unit": "%"}, {"measurement": "Long Term Survivors (after 60 days)", "setting": "Ascites Sarcoma 180; 2 mg/Kg i.p.", "value": "0/10"}, {"measurement": "Average Survival time", "setting": "Ascites Sarcoma 180; 2 mg/Kg i.p.", "value": 184, "unit": "%"}, {"measurement": "Long Term Survivors (after 60 days)", "setting": "Ascites Sarcoma 180; 10 mg/Kg i.p.", "value": "1/8"}, {"measurement": "Average Survival time", "setting": "Ascites Sarcoma 180; 10 mg/Kg i.p.", "value": 234, "unit": "%"}]}
